Data taken from ChEMBL document CHEMBL3507680, “University of Dundee, Gates Library screen for HepG2 cell viability”.

assay: Human HepG2 cell viability assay in 384 well format; format: toxicity, cell-based; design: dose 125 nL, time 70.5 hour; concentration not given beside the values; details: HepG2 cells, read-out: Inhibition

| Structure (SMILES) | cytotoxicity at 70.5 h |
| --- | --- |
| CCOCC(O)CN1CCN(C(=O)C2CCCC2)CC1 (configuration not stated) | -0.535% |
| Cc1ccc(OCC(=O)NC2CC2)nc1 | -2.52% |
| CC(CS(C)(=O)=O)N(C(=O)CCc1ccsc1)C1CC1 (configuration not stated) | -4.58% |
| O=C(c1ccc(Oc2cccnc2)cc1)N1CCN(CCO)CC1 | -18.5% |
| Cc1cc(C(=O)NCc2cccnc2OC(C)C)no1 | -31.2% |
| COCC1CN(C(=O)c2ccnnc2)Cc2c1cnn2C (configuration not stated) | -1.23% |
| Cc1cnn(CC2CCCN2CC(=O)Nc2cc(C(C)(C)C)no2)c1 (configuration not stated) | 5.18% |
| OC1(CN2CCCC2)COCCN(c2cc(C(F)(F)F)ccn2)C1 (configuration not stated) | -7.83% |
| Cc1ccnc(N2CCC(NCCOc3ccccc3)CC2)n1 | -4.28% |
| Cc1nc(CN2CCC3(CCCN(Cc4ccncc4)C3)C2=O)cs1 (configuration not stated) | -11.1% |
| Fc1ccccc1CC1CCN(Cc2nccs2)CC1 | -3.29% |
| CCS(=O)(=O)N(C)C1CCN(C(=O)c2cccc(Cl)c2)CC1 | -4.92% |
| Cc1ccc(CNc2ccc(N3CCC(CO)CC3)cn2)o1 | -2.34% |
| O=C(O)CCc1cc2n(n1)CCCN(C(=O)c1ccc(F)cc1F)C2 | -0.277% |
| Cc1cccnc1NC(=O)N(CCO)Cc1ccsc1 | -4.42% |
| Cc1cnn(C2CCCN(C(=O)Cc3ccc(C)s3)C2)c1 (configuration not stated) | -0.137% |
| Cc1ccc(C(=O)NCCCn2cncn2)c(=O)[nH]1 | 21.9% |
| COCCC(=O)N1C[C@H]2CN(Cc3cccc(C)n3)C(=O)[C@H]2C1 | -11.1% |
| CCCNc1ccc(C(=O)NCCc2ccc(Cl)cc2)cn1 | -5.63% |
| O=C(NCC1CCCCC1)NC1CCCc2c1cnn2CCO (configuration not stated) | -7.67% |
| CN1CCN(CCOc2ccc(NC(=O)c3ccc[nH]3)cc2)CC1 | -2.18% |

| Structure (SMILES) | cytotoxicity at 70.5 h |
| --- | --- |
| c1ccc(N2CCCC(c3nc(-c4cccnn4)no3)C2)nc1 (configuration not stated) | -11.5% |
| CC(C)OCc1nn(CC2CC2)c2c1CN(Cc1ccco1)CC2 | -1.8% |
| COCC(=O)N[C@H](C)c1onc(-c2ccc(OC)cc2)c1C(=O)O | 10.8% |
| CCN(Cc1ccccc1)C(=O)CN1CCCCC1Cn1cncn1 (configuration not stated) | -6.76% |
| Cc1nccn1CC1CCCN1S(=O)(=O)Cc1ccccc1 (configuration not stated) | -22.1% |
| CN(CCc1ccccn1)C(=O)Nc1cc(C(F)(F)F)c[nH]c1=O | 8.07% |
| O=S1(=O)NCC2(CCCN(Cc3cccnc3)C2)Oc2ncccc21 (configuration not stated) | 26.5% |
| CC(=O)N1Cc2ccccc2CC2(CCCCN2C)C1 (configuration not stated) | 21.1% |
| CCCC(=O)NCC(=O)NC(c1ccc(Cl)cc1)C(F)(F)F (configuration not stated) | 8.36% |
| O=C(c1ccc(F)c(F)c1)N1CCCSCC1CN1CCCC1 (configuration not stated) | -0.49% |
| Cc1cc(C(=O)N2CCCC3(CN(C)C(=O)O3)C2)c2ccc(F)cc2n1 (configuration not stated) | 16.1% |
| O=S(=O)(NCC(O)c1cccs1)c1ccccc1Cl (configuration not stated) | 11% |
| COc1cc(C)ccc1OCC(=O)NS(=O)(=O)c1cccnc1 | -3.71% |
| CC(C)N1CCC(c2cc(C(F)(F)F)n3ccnc3n2)CC1 | 12.6% |
| Cc1ccc(CN2CC[C@H]3OCC[C@@H](C(=O)NCC4CC4)[C@@H]3C2)s1 | -6.5% |
| CC1CCCCN1c1nc2c(c(=O)[nH]1)CCN(Cc1ccc(O)cc1)C2 (configuration not stated) | -8.85% |
| O=C(NCCNc1cnccn1)N1CCN(Cc2cccnc2)CC1 | 33.3% |
| O=C(N1CCCC1)N1Cc2nccn2CC(Cn2ncccc2=O)C1 (configuration not stated) | -0.168% |
| Cc1cccc(C2CCCCN2C(=O)CCCS(C)(=O)=O)c1C (configuration not stated) | -9.93% |
| Cc1nccc(-c2ccccc2)c1C(=O)N1CCC2(CC(=O)NC2=O)C1 (configuration not stated) | -0.158% |
| CC1CCC(N2CCC(NS(=O)(=O)CCCF)CC2)CC1 (configuration not stated) | 7.59% |

| Structure (SMILES) | cytotoxicity at 70.5 h |
| --- | --- |
| Cc1csc(NC(=O)CN2CCc3nn(C)c(=O)cc3C2)n1 | -8.05% |
| CC(C)N1C[C@@H]2CN(C(=O)NCc3ccccc3)CCC[C@]2(C(=O)O)C1 | -4.97% |
| C[C@@H]1CN(C(=O)CCCn2nnc(-c3ccc(F)cc3)n2)C[C@]1(C)O | 22.7% |
| CCn1ncnc1CN(C/C=C/c1ccccc1)CCOC | -1.42% |
| O=C(c1cccnc1)N1CCOC(c2ccc(-c3cncnc3)cn2)C1 (configuration not stated) | -0.513% |
| Cc1cnn(CC(C)Nc2cnc3ccccc3n2)c1 (configuration not stated) | 4.57% |
| CN1CC2(CCN(Cc3cccnc3)CC2)c2cccc(F)c21 | -2.73% |
| C=C(C)CN1CCCC1c1nc(Cc2ccc(F)cc2)no1 (configuration not stated) | 12.4% |
| O=c1[nH]nc2c(S(=O)(=O)N3CCN(c4ccc(F)cc4)CC3)cccn12 | 20.6% |
| COc1cc(CNCC(O)c2ccc(F)cc2F)cc2c1OCO2 (configuration not stated) | 4.59% |
| CN(C(=O)c1ccc(C#N)cc1)c1nnc(C2CCOC2)s1 (configuration not stated) | -6.28% |
| Cc1cccc(C(C)(C)CNC(=O)CCSc2nnnn2C)c1 | -2.6% |
| COC1COC2(CCN(Cc3ccccc3F)CC2)C1 (configuration not stated) | -8.4% |
| Cc1ncc2c(n1)CCCC2NC(=O)c1ccccc1Cn1cncn1 (configuration not stated) | 18.1% |
| CC(C)CC(NC(=O)c1ccco1)c1nnc2ccccn12 (configuration not stated) | -24.3% |
| N[C@H]1CCCN(S(=O)(=O)c2ccc(C(=O)NCC(F)F)cc2)C1 | 25.2% |
| COCc1nc(C(=O)N2CCCC(n3ccnc3C(C)C)C2)cs1 (configuration not stated) | -12.2% |
| CCn1nc(CNC(=O)C2CCCN(C(=O)COC)C2)c2ccccc21 (configuration not stated) | -5.41% |
| Cc1noc([C@@H]2CC[C@@H]3[C@@H](CCN3c3nnc(C)s3)O2)n1 | -8.18% |
| Cc1nnc(SCCCNC(=O)Cc2ccc3c(c2)OCO3)s1 | 11.5% |
| CCOc1ccc(C(=O)N2CCCC2c2c(C)nn(C)c2Cl)cn1 (configuration not stated) | -1.78% |

| Structure (SMILES) | cytotoxicity at 70.5 h |
| --- | --- |
| CCOc1cccc(CCNC(=O)Cc2cccc(O)c2)n1 | -7.71% |
| COC[C@H]1CCC[C@]12CN(S(=O)(=O)c1cccs1)CCO2 | -4.35% |
| CCN(CCn1cccn1)Cc1nc(-c2ccccc2F)oc1C | -7.43% |
| O=C(CN1CCSC(c2ccccc2)C1)NCc1ccccn1 (configuration not stated) | -5.23% |
| Cn1cc(-c2nc(CN3CCN(CCO)CC3)cs2)cn1 | 12.2% |
| CNC(=O)C1Cc2ccccc2CN1CCC#N (configuration not stated) | 4.8% |
| O=C1CC(c2cccs2)c2sc(C(=O)O)c(-c3ccccc3)c2N1 (configuration not stated) | -9.97% |
| c1ccc(Cn2cc(CNc3ncnc4c3CCNCC4)cn2)cc1 | -15% |
| Cc1ccnc(C2CCCN2C(=O)CN(C)C)n1 (configuration not stated) | -1.48% |
| COC1CCCOC12CCN(C(=O)NCc1ccco1)CC2 (configuration not stated) | -1.17% |
| COCCN(Cc1ccc(C)o1)C(=O)Nc1nnc2ccccn12 | -16.7% |
| COCCN1C[C@H]2[C@@H](C1)N(C(=O)c1cccs1)CC[C@H]2OC | -21.9% |
| CN(C)S(=O)(=O)N1CC[C@]2(C[C@@H](Oc3ncccc3F)CO2)C1 | 13.4% |
| COCCc1ncc(CN2CCC(Oc3ccccc3C)CC2)cn1 | -0.184% |
| CCc1n[nH]c(C2CN(C(=O)c3cc(C4CC4)on3)CCO2)n1 (configuration not stated) | -5.69% |
| CC(C)n1cnnc1Cn1ccc2ncccc2c1=O | 1% |
| CN(C)CCN1CCN(C(=O)c2ccn(C)c(=O)c2)CC1 | -11.6% |
| O=C(CCc1ccc(Cl)cc1)N1CCC(O)(C(F)(F)F)C1 (configuration not stated) | -6.2% |
| CSCc1cc(F)ccc1CNC(=O)N1CCC(CO)CC1 | -0.781% |
